According to US20090082285A1, “Adiponectin expression promoter” (SAN-EI GEN F.F.I., INC., priority 2003, published 2009):

Test system: adiponectin mRNA in epididymis adipose cells
Assay: Adiponectin mRNA level in isolated epididymis adipose cells (RT-PCR, gel densitometry)
Assay type: cell-based, Wistar male rat
Settings: for mRNA level: adiponectin mRNA, control (DMSO) defined as 1, cultured 24 hours at 37° C.; for adiponectin mRNA level in adipose tissue (result in words): conclusion from FIG. 1 and Table 5, 100 μM or 250 μM vs DMSO control
Procedure: A Wistar male rat (body weight of 160 g) was sacrificed and its epididymis adipose tissues were excised. The epididymis adipose tissues were placed in 0.5% bovine serum albumin (BSA)/30 mM HEPES/200 nM adenosine/Krebs Ringer bicarbonate buffer(BSA-KRBH) containing 1176 units/mL of collagenase (Sigma, type II), and allowed to stand at 37° C. for 90 minutes (hereunder, 0.5% BSA/30 mM HEPES/200 nM adenosine/Krebs Ringer bicarbonate buffer is referred to as BSA-KRBH). Adipose cells were isolated from the connective tissue by the above-described operation. The isolated adipose cells were then washed with BSA-KRBH four times, and the thus-obtained adipose cells were suspended in a BSA-KRBH culture medium.
Subsequently, to the thus-obtained suspension, a solution prepared by dissolving cyanidin (Cy; manufactured by Funakoshi Co., Ltd.) or cyanidin 3-O-β-D-glucoside (hereinafter, referred to as “cyanidin 3-glucoside”)(C3G; manufactured by Funakoshi Co., Ltd.) in DMSO was added in such a manner that the final concentration of cyanidin or cyanidin 3-glucoside was 100 μM or 250 μM. The resulting solutions were cultured under 5% CO2 at 37° C. for 24 hours, and the adipose cells were then collected.
Total RNAs were extracted from the thus-obtained adipose cell using an RNA extracting reagent (ISOGEN, manufactured by Nippon Gene Co., Ltd.) by following the instruction manual (http://www.nippongene.jp/pages/products/extraction/isogen/genol. html). Using the total RNAs as a template, a reverse transcription reaction was conducted at 37° C. for 120 minutes, and the RNAs were amplified by 20 cycles of PCR (RT-PCR (Reverse transcription-polymerase chain reaction) method). Specifically, 2.5 μg of total RNAs was subjected to reverse transcription in a buffer solution comprising oligo dT primer, 1.3 mM dNTP (deoxynucleoside triphosphates, GIBCO BRL, Grand Island, N.Y.), 10 mM DTT (dithiothreitol, GIBCO BRL), and 200 U of RNase inhibitor (GIBCO BRL) using 200 U of Moloney murine leukemia virus reverse transcriptase (GIBCO BRL) at 37° C. for 120 minutes, then allowed to stand at 94° C. for 2 minutes, and the reaction was terminated. The thus-generated cDNAs were amplified in a 0.01% Tween 20/0.2 mM dNTP/2 mM MgCl2/75 mM Tris buffer (pH 8.8) containing 1 μM 5′-primer([…]) and 3′-primer([…]), using 1.5 U of Taq DNA polymerase (MBI Fermentas, Lithuania) by repeating 20 cycles of PCR (each cycle comprised a denaturation step at 94° C. for 30 seconds, an annealing step. at 58° C. for 30 seconds, and an extension reaction step at 72° C. for 30 seconds), and then allowed to stand at 72° C. for 10 minutes.
The RT-PCR product (502 bp) was applied to a 1% agarose gel with DNA size markers, and subjected to electrophoresis in a Tris-Acetate-EDTA buffer at 100 V for about 30 minutes. After conducting electrophoresis, the gel was dipped in an ethidium bromide solution, shaken for 15 minutes, and then stained. Subsequently, the fluorescence intensity of the gel was measured using a gel analysis program (ATTO Lane Analyzer 10H Software Densitograph provided by Atto Corporation).
Note that, in FIG. 1, the control is epididymis adipose cells to which only DMSO was added.

OCC1OC(Oc2cc3c(O)cc(O)cc3[o+]c2-c2ccc(O)c(O)c2)C(O)C(O)C1O [Cyanidin 3-glucoside, cyanidin 3-O-β-D-glucoside]
mRNA level (100 μM): 2.7
mRNA level (250 μM): 2.1
adiponectin mRNA level in adipose tissue (result in words): increased adiponectin mRNA level

Oc1cc(O)c2cc(O)c(-c3ccc(O)c(O)c3)[o+]c2c1 [Cyanidin, cyanidin]
mRNA level (100 μM): 2.1
mRNA level (250 μM): 2.2
adiponectin mRNA level in adipose tissue (result in words): increased adiponectin mRNA level
